Assays:
[1] = molecular target: Apoptosis regulator Bcl-2 (Homo sapiens, UniProt P10415); assay: Displacement of NLWAAQRYGRELRRMSD-K(FITC)-FVD from Bcl-2 (unknown origin) by fluorescence polarization assay
[2] = molecular target: T1, DNA topoisomerase 2 (Saccharomyces cerevisiae S288c, UniProt P06786); assay: Inhibition of Saccharomyces cerevisiae DNA topoisomerase 2
T1 sequence (P06786 whole entry): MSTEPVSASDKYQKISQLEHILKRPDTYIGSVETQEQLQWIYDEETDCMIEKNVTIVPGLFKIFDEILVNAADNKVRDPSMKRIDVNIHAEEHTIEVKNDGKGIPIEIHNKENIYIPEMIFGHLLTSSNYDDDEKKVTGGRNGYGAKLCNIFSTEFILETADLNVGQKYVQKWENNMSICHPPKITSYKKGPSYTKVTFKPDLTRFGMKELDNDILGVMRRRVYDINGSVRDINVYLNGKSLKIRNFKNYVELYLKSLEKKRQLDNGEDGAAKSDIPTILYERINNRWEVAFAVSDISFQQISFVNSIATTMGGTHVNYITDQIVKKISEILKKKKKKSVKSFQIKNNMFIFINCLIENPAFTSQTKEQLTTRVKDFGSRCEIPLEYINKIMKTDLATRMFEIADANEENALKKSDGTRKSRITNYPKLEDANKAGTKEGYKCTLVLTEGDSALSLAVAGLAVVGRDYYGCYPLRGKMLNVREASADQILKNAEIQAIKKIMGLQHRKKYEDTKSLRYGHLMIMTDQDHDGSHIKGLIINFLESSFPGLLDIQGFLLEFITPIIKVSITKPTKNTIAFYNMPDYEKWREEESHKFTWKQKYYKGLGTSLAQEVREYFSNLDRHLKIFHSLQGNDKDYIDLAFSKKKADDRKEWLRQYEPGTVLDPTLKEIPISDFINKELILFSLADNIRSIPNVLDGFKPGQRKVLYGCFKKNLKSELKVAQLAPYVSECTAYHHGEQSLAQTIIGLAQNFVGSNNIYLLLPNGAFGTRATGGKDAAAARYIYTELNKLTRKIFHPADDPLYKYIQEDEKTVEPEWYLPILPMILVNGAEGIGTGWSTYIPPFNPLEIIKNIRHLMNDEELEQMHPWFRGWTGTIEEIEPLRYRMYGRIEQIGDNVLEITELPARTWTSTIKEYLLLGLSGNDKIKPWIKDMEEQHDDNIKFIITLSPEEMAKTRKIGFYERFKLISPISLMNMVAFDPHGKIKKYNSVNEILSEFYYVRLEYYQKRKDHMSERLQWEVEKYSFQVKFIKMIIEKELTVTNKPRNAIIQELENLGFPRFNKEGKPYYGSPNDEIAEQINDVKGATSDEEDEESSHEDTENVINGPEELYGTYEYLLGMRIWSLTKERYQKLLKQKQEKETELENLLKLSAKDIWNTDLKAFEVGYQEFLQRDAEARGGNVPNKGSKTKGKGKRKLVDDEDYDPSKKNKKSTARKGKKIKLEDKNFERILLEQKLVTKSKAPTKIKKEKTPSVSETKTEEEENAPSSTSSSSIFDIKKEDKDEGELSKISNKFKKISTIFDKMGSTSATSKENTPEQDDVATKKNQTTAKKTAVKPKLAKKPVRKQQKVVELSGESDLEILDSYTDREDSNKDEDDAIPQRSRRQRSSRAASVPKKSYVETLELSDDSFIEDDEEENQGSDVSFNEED

[3] = molecular target: T2, DNA topoisomerase 1 (Homo sapiens, UniProt P11387); assay: Inhibition of DNA topoisomerase 1 (unknown origin)
T2 sequence (P11387 whole entry): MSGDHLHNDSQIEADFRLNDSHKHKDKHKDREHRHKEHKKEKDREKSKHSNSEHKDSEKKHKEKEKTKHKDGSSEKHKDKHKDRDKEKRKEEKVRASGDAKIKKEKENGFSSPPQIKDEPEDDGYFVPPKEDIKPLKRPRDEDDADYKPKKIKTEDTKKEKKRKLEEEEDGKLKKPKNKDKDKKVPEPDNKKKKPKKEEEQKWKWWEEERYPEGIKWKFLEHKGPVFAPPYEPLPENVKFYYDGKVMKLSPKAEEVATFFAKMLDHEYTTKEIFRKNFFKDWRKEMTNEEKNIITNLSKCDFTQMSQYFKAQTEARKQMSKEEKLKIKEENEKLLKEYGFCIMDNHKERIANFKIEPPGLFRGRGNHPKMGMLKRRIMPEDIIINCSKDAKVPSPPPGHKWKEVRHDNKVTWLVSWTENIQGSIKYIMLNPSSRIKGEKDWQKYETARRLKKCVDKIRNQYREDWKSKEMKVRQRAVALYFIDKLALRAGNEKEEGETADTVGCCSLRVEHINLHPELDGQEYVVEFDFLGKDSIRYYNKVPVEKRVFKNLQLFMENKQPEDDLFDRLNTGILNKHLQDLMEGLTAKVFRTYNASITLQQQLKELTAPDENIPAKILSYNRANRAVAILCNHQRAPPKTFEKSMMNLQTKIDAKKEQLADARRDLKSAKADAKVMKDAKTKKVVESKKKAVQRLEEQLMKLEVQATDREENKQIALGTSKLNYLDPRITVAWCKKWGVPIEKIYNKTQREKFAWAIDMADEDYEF

[4] = Binding affinity to Homo sapiens (human) G-quadruplex DNA assessed as formation of VNTR6-1 mutant complex after 2 min by PCR stop assay
[5] = Binding affinity to Homo sapiens (human) G-quadruplex DNA assessed as formation of G4TER2 mutant complex after 2 min by PCR stop assay
[6] = Binding affinity to Homo sapiens (human) G-quadruplex DNA assessed as formation of G4TER1 mutant complex after 2 min by PCR stop assay

Chain of Apoptosis regulator Bcl-2 (P10415 whole entry): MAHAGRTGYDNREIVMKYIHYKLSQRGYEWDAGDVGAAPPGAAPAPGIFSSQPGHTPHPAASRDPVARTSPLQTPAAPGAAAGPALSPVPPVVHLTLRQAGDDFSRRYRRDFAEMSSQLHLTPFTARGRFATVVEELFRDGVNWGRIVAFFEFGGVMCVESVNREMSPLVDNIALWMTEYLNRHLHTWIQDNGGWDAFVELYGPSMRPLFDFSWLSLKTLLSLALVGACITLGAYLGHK

SMILES | Ki [1] | also measured
Oc1cc(O)c2c(c1)O[C@H](c1ccc(O)c(O)c1)[C@H](O)C2 [(-)-EPICATECHIN] | > 100 µM | 
O=C(O[C@@H]1Cc2c(O)cc(O)cc2O[C@H]1c1ccc(O)c(O)c1)c1cc(O)c(O)c(O)c1 [CATECHIN GALLATE] | 0.23 µM | 
Oc1cc(O)c2c(c1)O[C@H](c1ccc(O)c(O)c1)[C@@H](O)C2 [CATECHIN] | > 100 µM | 
O=C(O[C@@H]1Cc2c(O)cc(O)cc2O[C@@H]1c1ccc(O)c(O)c1)c1cc(O)c(O)c(O)c1 [EPICATECHIN GALLATE] | 0.4 µM | 
Oc1cc(O)c2c(c1)O[C@H](c1cc(O)c(O)c(O)c1)[C@H](O)C2 [EPIGALLOCATECHIN] | > 100 µM | 
O=C(O[C@@H]1Cc2c(O)cc(O)cc2O[C@@H]1c1cc(O)c(O)c(O)c1)c1cc(O)c(O)c(O)c1 [EPIGALOCATECHIN GALLATE] | 0.335 µM | IC50 [2]: 3000 µM
O=C(O[C@@H]1Cc2c(O)cc(O)cc2O[C@H]1c1cc(O)c(O)c(O)c1)c1cc(O)c(O)c(O)c1 [GALLOCATECHIN GALLATE] | 0.235 µM | 
Oc1cc(O)c2c(c1)O[C@H](c1cc(O)c(O)c(O)c1)[C@@H](O)C2 [GALLOCATECHIN] | > 100 µM | 
O=c1c(O)c(-c2cc(O)c(O)c(O)c2)oc2cc(O)cc(O)c12 [MYRICETIN] |  | IC50 [3]: 37.4 µM
Cc1oc2nc1-c1nc(co1)-c1nc(co1)-c1nc(co1)-c1nc(co1)-c1nc(co1)C1=NC(CS1)c1nc-2c(C)o1 (centres undefined) [TELOMESTATIN] |  | IC50 [4]: 9 µM; IC50 [5]: 10 µM; IC50 [6]: 10 µM
O=c1c(O)cccc2c([C@H]3Oc4cc(O)cc(O)c4C[C@H]3O)cc(O)c(O)c12 [THEAFLAVANIN] | 0.286 µM | 
